Laboratory results taken from US7345192B2, “Reduction of hair growth” (The Gillette Company, priority 2005, dated 2008).
Where two headings read alike, the source gives them in different places. Blank lines part the entries; values can stand above or below the compound they belong to.

Legend:
[1] = Ionization constants by potentiometric titration; type: physicochemical
Protocol: Although Schiff base formation is possible at both amino groups, sufficient selectivity can be achieved under buffered conditions or by terminating the reaction at an appropriate time. […] Three constants were obtained: pK1=0.084, pK2=6.437, pK3=10.393. Mono-conjugated Schiff base was prepared by reaction with a selected aldehyde or ketone under controlled buffer conditions.

[2] = Protocol: The penetration studies were carried out using Franz chambers. Hamster skin (non-flank organ region) was clipped and appropriate size pieces then cut and mounted between the lower and upper Franz cell chambers. The lower and upper chambers (with the skin in between) were then securely clamped together. A small magnetic stir bar was placed in the bottom of each chamber, 80 μL of 100× sodium azide to a final concentration of 0.2% was added as an anti-microbial agent, then the lower chamber was filled with phosphate buffered saline (PBS). PBS is added until the level in the side arm is just level with the mounted skin, slightly inverting the cells as necessary to remove any air bubbles that might occur. The Franz chambers are then placed in the appropriate size heating blocks and allowed to stand overnight at room temperature. […] Similarly, 20-40 μL of a 1% test formulation was applied over 8-10 chambers. Four hundred μL of the receptor fluid from the lower chamber was removed at 2, 4, 6, 8, 24 and 50 hours and placed in a scintillation vial. This PBS was then replaced with 400 μL of fresh PBS.
[3] = In vitro drug skin accumulation assay (tape-stripped skin after 50-hour diffusion); type: in vitro ADME, Hamster; conditions: for % Skin Deposition: skin after tape stripping of stratum corneum
Protocol: The penetration studies were carried out using Franz chambers.
After the 50-hour receiver fluid sample was taken, the diffusion set-up was dismantled. The skin section was mounted on a board and the stratum corneum skin layer was removed by tape stripping (3M Magic Tape 810). The section of the remaining skin exposed to the receiver fluid was isolated, placed in a vial containing 1 ml of Beckman Tissue Solubilizer-450, shaken for 4 days, and the resulting solution was assayed for the radiolabeled drug.

SMILES: NCCC[C@](N)(C(=O)O)C(F)F [DFMO, α-Difluoromethylornithine]
Ionization constant pK1 [1]: 0.084 | Ionization constant pK2 [1]: 6.437 | Ionization constant pK3 [1]: 10.393

SMILES: CC(C=NCCCC(N)(C(=O)O)C(F)F)=Cc1ccccc1 (centres unmarked) [MCA-DFMO, 2-amino-2-difluoromethyl-5-(2-methyl-3-phenyl-allylideneamino)-pentanoic acid]
Skin penetration, % of applied dose after 24 hr ([2]; hamster, 24 h, 1 % formulation): 3.28 ± 0.88 % of applied dose | Relative Deposition (fold increase over unconjugated DFMO) [3]: 5.0 fold | % Skin Deposition [3]: 4.00 ± 3.0%

SMILES: COC(=O)C(N)(CCCN)C(F)F (centres unmarked) [DFMO-OMe, 2,5-diamino-2-difluoromethyl-pentanoic acid methyl ester]
Rate of Penetration ([2]; hamster, 4 h, 1 % formulation): 0.23 ± 0.18 | Rate of Penetration ([2]; hamster, 6 h, 1 % formulation): 0.21 ± 0.16 | Rate of Penetration ([2]; hamster, 24 h, 1 % formulation): 0.2 ± 0.13

SMILES: Cc1cc(C)c(C=NCCCC(N)(C(=O)O)C(F)F)c(C)c1 (centres unmarked) [M-DFMO, 2-amino-2-difluoromethyl-5-[(2,4,6-trimethyl-benzylidene)-amino]-pentanoic acid]
Skin penetration, % of applied dose after 24 hr ([2]; hamster, 24 h, 1 % formulation): 6.68 ± 1.68 % of applied dose

Next, values leading:

Skin penetration, % of applied dose after 24 hr ([2]; hamster, 24 h, 1 % formulation): 3.31 ± 0.98 % of applied dose
SMILES: CC(C)c1ccc(C=NCCCC(N)(C(=O)O)C(F)F)cc1 (centres unmarked) [IPB-DFMO, 2-amino-2-difluoromethyl-5-[(4-isopropyl-benzylidene)-amino]-pentanoic acid]

Skin penetration, % of applied dose after 24 hr [2]: 3.91 ± 0.71 % of applied dose
SMILES: NC(CCCN=Cc1ccc2ccccc2c1)(C(=O)O)C(F)F (centres unmarked) [N-DFMO, 2-amino-2-difluoromethyl-5-[([…]aphthalene-2-ylmethylene)-amino]-pentanoic acid]

Initial Rate of Penetration ([2]; hamster, 2 h, 1 % formulation): 1.24 ± 1.16 | Initial Rate of Penetration ([2]; hamster, 4 h, 1 % formulation): 1.65 ± 1.48 | Initial Rate of Penetration ([2]; hamster, 6 h, 1 % formulation): 1.71 ± 1.50 | Level of radiolabeled drug in the receptor fluid ([2]; hamster, 24 h, 1 % formulation): 10±1 % of the applied dose | Skin penetration, % of applied dose after 24 hr ([2]; hamster, 24 h, 1 % formulation): 9.63 ± 1.31 % of applied dose | Level of radiolabeled drug in the receptor fluid ([2]; hamster, 50 h, 1 % formulation): 16±3 % of the applied dose | Relative Deposition (fold increase over unconjugated DFMO) [3]: 7.4 fold | % Skin Deposition [3]: 5.92 ± 4.0%
SMILES: NC(CCCN=Cc1ccccc1)(C(=O)O)C(F)F (centres unmarked) [B-DFMO, 2-amino-5-(benzylidene-amino)-2-difluoromethyl-pentanoic acid]

Skin penetration, % of applied dose after 24 hr ([2]; hamster, 24 h, 1 % formulation): 3.34 ± 1.97 % of applied dose | Relative Deposition (fold increase over unconjugated DFMO) [3]: 1.2 fold | % Skin Deposition [3]: 0.96 ± 0.6%
SMILES: COc1cc(C=NCCCC(N)(C(=O)O)C(F)F)ccc1O (centres unmarked) [V-DFMO, 2-amino-2-difluoromethyl-5-[(4-hydroxy-3-methoxy-benzylidene)-amino]-pentanoic acid]
